The values below come from patent CN115504972A, “异恶唑类衍生物、其制备方法及其作为药物的用途” (Guangdong Pharmaceutical University, priority 2021, dated 2022).

Series [1] relates to non-alcoholic fatty liver model mice (非酒精性脂肪肝模型小鼠). As to the kind of experiment: Improvement of non-alcoholic fatty liver in NASH model mice (Western diet + CCl4), HE staining of liver. Format: in vivo, C57BL/6 mouse. As to conditions: 10 mg/kg, gavage, once daily, 4 weeks; compared with obeticholic acid 20 mg/kg.
The conditions of series [2]: phase III clinical study; cited from earlier work.
Series [3] relates to non-alcoholic fatty liver disease (非酒精性脂肪性肝病(NAFLD)). The conditions noted are these: phase IIa clinical study; cited from earlier work.
For series [4] the following is noted: clinical studies; cited from earlier work.
For series [5], the system named is non-alcoholic hepatitis (非酒精性肝炎(NASH)). The conditions noted are these: phase IIb study, 72 weeks of treatment; cited from earlier work.
For series [6], the target named is T1, FXR receptor (FXR受体) (Homo sapiens, UniProt Q96RI1).
T1 sequence (Q96RI1 1-486): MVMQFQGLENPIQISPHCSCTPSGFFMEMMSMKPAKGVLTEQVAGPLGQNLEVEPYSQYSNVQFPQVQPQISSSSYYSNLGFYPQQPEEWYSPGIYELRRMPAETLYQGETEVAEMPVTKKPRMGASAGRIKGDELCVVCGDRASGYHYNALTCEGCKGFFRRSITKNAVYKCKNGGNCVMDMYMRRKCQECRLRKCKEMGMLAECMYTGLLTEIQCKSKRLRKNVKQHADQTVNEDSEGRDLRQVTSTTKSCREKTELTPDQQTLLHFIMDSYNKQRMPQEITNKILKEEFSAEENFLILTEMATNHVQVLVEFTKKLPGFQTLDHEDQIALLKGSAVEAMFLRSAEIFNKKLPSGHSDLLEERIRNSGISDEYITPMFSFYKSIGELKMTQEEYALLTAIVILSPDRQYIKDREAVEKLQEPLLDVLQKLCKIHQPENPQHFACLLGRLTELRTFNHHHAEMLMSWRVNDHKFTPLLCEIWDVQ
As to conditions: cited from earlier work.

Consider `CC(C)c1onc(-c2ccccc2OC(F)(F)F)c1CN1CCC(COc2ccc(C(=O)O)cc2)CC1` [I-9, 4-(1-(5-异丙基-3-(2-三氟甲氧基苯基)异恶唑-4-甲基)哌啶-4-甲氧基)苯甲酸], for which, in series [1], the ballooning entry is on record as “得到更明显的改善”, the “degree of hepatic steatosis” value was “得到更明显的改善”, the “improvement of non-alcoholic fatty liver” value is on record as “明显优于奥贝胆酸” and the inflammatory infiltration result was “得到更明显的改善”.

For the compound `CC[C@H]1[C@@H](O)[C@@H]2[C@H](CC[C@]3(C)[C@@H]([C@H](C)CCC(=O)O)CC[C@@H]23)[C@@]2(C)CC[C@@H](O)C[C@@H]12` [奥贝胆酸], the “liver fibrosis, histological features of steatohepatitis and liver biochemical indicators” value in series [2] is reported as “可以改善肝纤维化、脂肪性肝炎的组织学特征以及肝脏的生化指标”. Further, in series [3], the insulin sensitivity entry is “有显著改善” and the other metabolic effects entry is recorded as “有益作用”. In addition, the side effects result in series [4] is listed as “严重的瘙痒、肝毒性、心血管风险等副作用”. The “histopathology of NASH” value in series [5] is given as “对非酒精性肝炎(NASH)的组织病理学的改进也有益”. Also, the “FXR receptor agonist activity compared with the endogenous ligand CDCA” value in series [6] is given as “比内源性配体CDCA活性更高”.
